Results published in patent US20250313828A1, “SYNTHETIC GENETIC PLATFORM IN EUKARYOTE CELLS AND METHODS OF USE” (University of Washington, priority 2022, published 2025).
“Also recorded” adds a separate entry of the source.

Legend:
[1] = type: cell-based, Saccharomyces cerevisiae
Protocol: Western Blot. […] Cells were harvested by centrifugation. Cells were lysed by vortexing for 5 min in the presence of 200 μl of 0.5-mm diameter acid washed glass beads and 200 μl SUMEB buffer (1% SDS, 8 M urea, 10 mM MOPS pH 6.8, 10 mM EDTA, 0.01% bromophenol blue, 1 mM PMSF) per one OD unit of original culture. Lysates were then incubated at 65° C. for 10 min and cleared by centrifugation prior to electrophoresis and blotting. Antibodies: anti-HA-HRP (REF-12013819001, Clone 3F10, Roche/Millipore Sigma, St. Louis, MO), anti-PGK1 (ab113687, AbCam). Protein concentrations were quantified using ImageJ, with PGK1 protein measured in each strain to normalize protein concentrations across strains. To compare protein concentrations to […]1, these were then normalized to TPL concentration using this equation: ([[…]1 normalized protein concentrations were plotted on a Log 2 scale.

auxin promoter::Venus = experiment: Repression activity of H1 helices fused to IAA3 in the AtARCSc, fluorescence flow cytometry; type: cell-based, Saccharomyces cerevisiae; details: for Repression activity of H1-HA-IAA3 library constructs: H1-HA-IAA3 expressed off a plasmid, static ARC components integrated at URA3
TPL sequence = target: T1, TPL sequence (Arabidopsis thaliana, UniProt Q94AI7); experiment: Small molecule testing on the yeast H1 platform, TPL helix fused to IAA3; type: cell-based; details: yeast cultured 4 hours with compound, flow cytometry
T1 construct: a construct carrying only the first 18 amino acids of Helix 1 of the LisH domain fused to IAA3; expressed in transfected cells; host or cells: Saccharomyces cerevisiae reporter strain (AFB2, ARF19 and auxin promoter::Venus integrated at URA3)
Protocol: (§1) Yeast were grown overnight from a dilution of […] at 30° C. and 250 rpm. When cell density reached […] either control (DMSO) or small molecule BC2059 were added at the indicated concentration, and cultured for 4 hours before being measured for fluorescence by flow cytometry. Each data point represents three independent time-course flow cytometry experiments of the helices indicated, all fused to IAA3. Every point represents the average fluorescence of at least 10,000 individually measured yeast cells (a.u.: arbitrary units). Error bars are standard error.

H1 sequence of TBL1 = target: T2, H1 sequence of TBL1 (Homo sapiens, UniProt O60907); experiment: Small molecule testing on the yeast H1 platform, TBL1 helix fused to IAA3; type: cell-based; details: yeast cultured 4 hours with compound, flow cytometry, absence of Beta-catenin
T2 construct: expressed in transfected cells; host or cells: Saccharomyces cerevisiae reporter strain (AFB2, ARF19 and auxin promoter::Venus integrated at URA3)
Protocol: as §1

mutant TBL1 H1 sequence = experiment: Cancer variant detection using the yeast H1 platform; type: cell-based, Homo sapiens (Human); details: 500 nM, 4 hours, compared with wild type TBL1 H1
Protocol: as §1, with “of the TBL1 or control helices indicated,” for “of the helices indicated,”
Yeast carrying either the wild type or mutant TBL1 H1 sequence were cultured in the presence or absence of 500 nM Tegatrabetan and fluorescence measured by flow cytometry. […] This approach is particularly relevant to personalized medicine for a given mutation in a patient.

[2] = test system: synthetic auxin reporter DR5-Venus; experiment: H1 repression assay, transient transformation in tobacco leaves; type: in vivo, Nicotiana benthamiana; details: transient expression in tobacco, IAA3 EAR motif mutated to AxAxA
Protocol: Reporter activation was measured in four separate leaf injections (biological replicates) in two days of injection (boxplots illustrated in FIG. 5C are pooled data from one day, with two replicates divided on right and left panels). Each leaf was excised at 8 locations and measured for Venus fluorescence using a plate scanner. pDR5:Venus: the synthetic DR5 auxin promoter (Ulmasov et al., Plant Cell 9, 1963-1971, 1997) driving Venus; ARF19: […]; […] Plant growth. […] Strain density was normalized to an OD600 of 1 for each strain in the final mixture of strains before injection into tobacco leaves. Leaves were removed, and eight different regions were excised using a hole punch, placed into a 96-well microtiter plate with 100 μl of water. Each leaf punch was scanned in a 4×4 grid for yellow and red fluorescence using a plate scanner (Tecan Spark, Tecan Trading AG, Switzerland). Fluorescence data was quantified and plotted in R (ggplots2).

| Molecule | Protein accumulation / stability [1] | Repression activity of H1-HA-IAA3 library constructs (auxin promoter::Venus) | further results |
| --- | --- | --- | --- |
| 1853M: cancer variant H1 KELLLLMRNHLIS, SEQ ID NO: 85 | slightly increasing protein accumulation | slightly decrease | – |
| C[C@@H]1C[C@H](C)CN(S(=O)(=O)c2ccc3c(c2)C(=NO)c2cc(S(=O)(=O)N4C[C@H](C)C[C@H](C)C4)ccc2C3=NO)C1 [BC2059, Tegavivint] | – | – | Effect on TPL H1 repression (TPL sequence): unaffected; Effect on TBL1's repressive activity on transcription (H1 sequence of TBL1): dose-dependent interference; Responsiveness of TBL1 H1 cancer variant mutations to the compound (mutant TBL1 H1 sequence): Certain cancer mutants were less sensitive to treatment |
| DmGID8: H1 tested in tobacco; probably H1-DmDMEI, ADLNRLVMNYLVT, SEQ ID NO: 38 (listed as Drosophila sechellia) | – | – | Repression of reporter in planta [2]: not functional |
| F10A: TPL H1 mutant RELVALILQFLDE, SEQ ID NO: 121 | – | – | Repression of reporter in planta [2]: improvements in repression in tobacco compared to wild type; Time course flow cytometry following auxin addition (de-repression) (auxin promoter::Venus; AtARCSc in yeast, auxin (IAA-10 μM) added): strengthened the durability of repression H1, converting it into an auxin-insensitive repression domain; also recorded: loss of auxin sensitivity |
| H856Y: cancer variant H1 KELLLLIRNYLIS, SEQ ID NO: 87 | not significantly affected | not significantly affected | – |
| HsLIS1: H1 sequence DELNRAIADYLRS, SEQ ID NO: 63 (listed as Homo sapiens) | well expressed | repressive | – |
| HsTBL1X Y64C: cancer variant H1 DEVNFLVCRYLQE, SEQ ID NO: 81 | highest accumulation | strongest repressor | – |
| L851F: cancer variant H1 KELLFLIRNHLIS, SEQ ID NO: 84 | dramatically reduces | dramatically reduces | – |
| PfGID8: H1 tested in tobacco; perhaps H1-BCR36DRAFT, KDLNKLIMNYLVI, SEQ ID NO: 36 (listed as Chytriomyces confervae) | – | – | Repression of reporter in planta [2]: less |
| R6E: TPL H1 mutant EELVFLILQFLDE, SEQ ID NO: 91 | negative effect on protein accumulation | loss of repression | – |
| R6N: TPL H1 mutant NELVFLILQFLDE, SEQ ID NO: 94 | negative effect on protein accumulation | loss of repression | – |
| R6V: TPL H1 mutant VELVFLILQFLDE, SEQ ID NO: 106 | negative effect on protein accumulation | loss of repression | – |
| R14W: cancer variant H1 DEVNFLVYWYLQE, SEQ ID NO: 83 | reductions in protein abundance | higher repression rates | – |
| R65Q: cancer variant H1 DEVNFLVYQYLQE, SEQ ID NO: 82 | reductions in protein abundance | higher repression rates | – |
| R854Q: cancer variant H1 KELLLLIQNHLIS, SEQ ID NO: 86 | slightly increasing protein accumulation | increase | – |
| SpHIF2: H1 sequence NQVNYIIWRYLKE, SEQ ID NO: 17 (Schizosaccharomyces pombe) | very poor protein stability | not detected | – |
